{"source": "paper PMC7069976", "about": "“Improved secretion of glycoproteins using an N-glycan-restricted passport sequence tag recognized by cargo receptor” (Nature Communications, 2020)", "key": {"MCFD2 [1]": {"target": "T1, MCFD2 (Homo sapiens, UniProt Q8NI22)", "T1 construct": "The preparation of ERGIC-53^CRD, MCFD2, and their complexes was performed as previously described; made in house", "T1 sequence (Q8NI22 27-146)": "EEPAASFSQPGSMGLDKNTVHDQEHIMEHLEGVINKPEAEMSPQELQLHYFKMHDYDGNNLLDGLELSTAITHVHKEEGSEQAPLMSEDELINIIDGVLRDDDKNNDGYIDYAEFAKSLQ", "assay": "NMR chemical shift perturbation of [15N]MCFD2 upon peptide addition", "assay_type": "binding"}, "COS-7 cells": {"test_system": "COS-7 cells", "assay": "FV secretion level (ELISA) from COS-7 cells", "assay_type": "cell-based", "text": "(§1) For expression of the FVIII and FV full-length and deletion mutant proteins in mammalian cells, the codon-optimized FVIII and FV genes were inserted into the p3XFLAG-CMV-14 Expression Vector and p3XFLAG-CMV-9 Expression Vector, respectively (Sigma-Aldrich, St. Louis, MO). For the expression of the wild-type and mutated AAT, EPO, and sFγRIIIa in mammalian cells, the corresponding genes (purchased from FASMAC Co., Ltd., Atsuki, Japan) were inserted into the p3XFLAG-CMV-9 Expression Vector (Sigma-Aldrich).\n(§2) The secreted levels of FVIII and FV antigens in the culture medium were determined with an sandwich enzyme-linked immunosorbent assay (ELISA) method using the VisuLize FVIII Antigen Kit (Affinity Biologicals Inc., Ancaster, ON) and the Asssay Max™ Human Factor V ELISA Kit (ASSAYPRO, MO), respectively. The secreted levels of AAT and EPO antigens in the culture medium were determined with an ELASA method using the anti-AAT antibody (Agilent, Santa Clara, CA) and anti-Flag M2 antibody (Sigma-Aldrich), respectively."}, "HCT116 cells": {"test_system": "HCT116 cells", "assay": "α1-antitrypsin (AAT) secretion level (ELISA) from HCT116 cells", "assay_type": "cell-based", "text": "as §1\nHCT116 and its mutated cells as well as HEK293T were maintained in Dulbecco’s modified Eagle’s medium (DMEM) supplemented with 10% fetal bovine serum in 5% CO2 at 37 °C. For complementary DNA (cDNA) transfection, cells were grown overnight and transfected using Polyethylenimine “Max” (Polysciences Inc.) as described previously. Expi293F cells (Thermo Fisher Scientific, Waltham, MA) were maintained in Expi293 Expression Medium (Thermo Fisher Scientific) in 5% CO2 at 37 °C on an orbital shaker platform rotating at 125 r.p.m. For cDNA transfection, cells were transfected with the ExpiFectamine 293 Transfection Kit (Thermo Fisher Scientific Inc.). Protein expression was performed in serum-free medium.\nas §2"}, "[2]": {"target": "T2, MCFD2/ERGIC-53^CRD complex (Homo sapiens, UniProt P49257+Q8NI22)", "T2 construct": "made in house", "T2 sequence (Q8NI22 27-146)": "T1 sequence (Q8NI22 27-146)", "T2 sequence (P49257 44-267 partner limits assumed)": "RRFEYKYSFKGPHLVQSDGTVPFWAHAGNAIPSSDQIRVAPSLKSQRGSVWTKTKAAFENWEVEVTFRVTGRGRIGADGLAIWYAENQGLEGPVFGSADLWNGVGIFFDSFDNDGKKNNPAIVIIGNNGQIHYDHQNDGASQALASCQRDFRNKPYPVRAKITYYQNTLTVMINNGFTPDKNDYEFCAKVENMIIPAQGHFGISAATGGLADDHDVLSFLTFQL", "assay": "NMR titration (peak attenuation) of [15N]FVIII-derived peptide with MCFD2/ERGIC-53CRD", "assay_type": "binding", "experimental": "(§3) The preparation of ERGIC-53^CRD, MCFD2, and their complexes was performed as previously described[16],[18]. FVIII fragment (Asn776–Asp838) was prepared using the protocol described previously. The DNA fragment encoding residues Asn776–Asp838 of FVIII was cloned into the ubiquitin (Ub)-fused pET28a plasmid. The peptide fragment was expressed as a Ub-fused protein in Luria–Bertani broth or M9 minimal medium supplemented with [^15N]NH4Cl and/or [^13C]glucose for NMR experiments. The Ub-fused FVIII peptide was purified with immobilized Ni^2+-affinity chromatography and then digested with Ub carboxyl-terminal hydrolase (YUH1). The resultant peptide was purified by reversed-phase chromatography.\n(§4) NMR measurements were performed using AVANCE 800 and AVANCE 500 spectrometers each equipped with a 5-mm triple-resonance cryogenic probe (Bruker BioSpin, Fallanden, Switzerland). The NMR data were processed and analyzed using TopSpin (Bruker BioSpin) and SPARKY software.\n(§5) The chemical shifts of the FVIII fragment (Asn776–Asp838) were assigned by a standard protocol[18],[25]. To obtain the dissociation constant based on NMR peak attenuation, 0.1 mM [^15N]FVIII fragment was titrated with 0.02–0.3 mM of MCFD2/ERGIC-53^CRD or MCFD2 only in 20 mM 2-(N-morpholino) ethanesulfonic acid (MES; pH 6.0) containing 10 mM CaCl2, 150 mM NaCl, and 10% (v/v) D2O. […]"}, "MCFD2 [3]": {"target": "T1, MCFD2", "assay": "NMR titration (peak attenuation) of [15N]FVIII-derived peptide with MCFD2 only", "assay_type": "binding", "conditions": "absence of ERGIC-53CRD, 0.1 mM [15N]FVIII fragment, 0.02–0.3 mM MCFD2, 20 mM MES pH 6.0, 10 mM CaCl2, 150 mM NaCl, 10% D2O, read-out: dissociation constant", "experimental": "as §3, §4, §5"}, "MCFD2 [4]": {"target": "T1, MCFD2", "conditions": "Arg44–His56; cited from earlier work"}}, "data": [{"substance": "DPPSDLLLLKQSNSSKILVGRWHLASEK", "values": [{"measurement": "interaction of FV-derived peptide with MCFD2", "setting": "MCFD2 [1]; two molar equivalents, with vs without ERGIC-53CRD-derived peptide, pH 6.0, 2% DMSO-d6, 303 K", "result": "interacts with the EF-hand helices of MCFD2 in an ERGIC-53^CRD-dependent manner"}]}, {"substance": "FV: recombinant wild-type factor V", "values": [{"measurement": "FV secretion level (Supplementary Fig. 7B), average", "setting": "COS-7 cells; Average, n = 3, FV = 1", "result": 1}, {"measurement": "FV secretion level (Supplementary Fig. 7B)", "setting": "COS-7 cells; replicate 1", "result": 1.05}, {"measurement": "FV secretion level (Supplementary Fig. 7B)", "setting": "COS-7 cells; replicate 2", "result": 0.9799}, {"measurement": "FV secretion level (Supplementary Fig. 7B)", "setting": "COS-7 cells; replicate 3", "result": 0.9702}]}, {"substance": "AAT: human α1-antitrypsin, three N-glycosylation sites", "values": [{"measurement": "AAT secretion level, average", "setting": "HCT116 cells; HCT116, Average, n = 3 independent transfections, AAT = 1", "result": 1}, {"measurement": "AAT secretion level", "setting": "HCT116 cells; HCT116, replicate 1", "result": 1.145}, {"measurement": "AAT secretion level", "setting": "HCT116 cells; HCT116, replicate 2", "result": 1.033}, {"measurement": "AAT secretion level", "setting": "HCT116 cells; HCT116, replicate 3", "result": 0.8224}]}, {"substance": "ATZ-mutant: ATZ-mutant of alpha 1-antitrypsin, with or without C-terminal SDLLMLLRQS motif", "values": [{"measurement": "ATZ-mutant secretion with vs without C-terminal motif", "setting": "HCT116 cells; ATZ-mutant of alpha1-antitrypsin, HCT116, ELISA, n = 3", "result": "did not observe significant difference"}]}, {"substance": "DPPSDLLLLKQSNSSKILVGRWHLASEK [FVIII-derived peptide, FVIII fragment residues Asn776–Asp838, expressed as Ub-fused protein and cleaved with YUH1]", "values": [{"measurement": "chemical shift changes of MCFD2 induced by FVIII-derived peptide", "setting": "MCFD2 [1]; two molar equivalents of peptide, with vs without five equivalents ERGIC-53CRD-derived tridecapeptide, pH 6.0, 303 K", "result": "markedly enhanced spectral changes in the presence of the ERGIC-53-derived tridecapeptide"}, {"measurement": "attenuation of NMR peak intensities upon addition of MCFD2/ERGIC-53CRD", "setting": "[2]; 15N-labeled peptide 0.1 mM, one molar equivalent, pH 6.0, 283 K", "result": "significant attenuation in peak intensities for the region spanning residues 806–819"}, {"measurement": "Kd", "setting": "[2]; NMR peak attenuation, 0.1 mM [15N]FVIII fragment titrated with 0.02–0.3 mM MCFD2/ERGIC-53CRD, 20 mM MES pH 6.0, 10 mM CaCl2, 150 mM NaCl, 10% D2O, read-out: dissociation constant", "result": 11, "unit": "µM"}, {"measurement": "Kd", "setting": "MCFD2 [3]", "result": 120, "unit": "µM"}]}, {"substance": "RRFEYKYSFKGPH", "values": [{"measurement": "chemical shift changes of MCFD2 induced by ERGIC-53CRD-derived tridecapeptide", "setting": "MCFD2 [4]", "result": "induces widespread chemical shift changes of MCFD2"}]}]}
